What follows are compounds tested on LOX IMVI (assay: Anticancer activity against human LOXIMVI cells assessed as cell growth promotion at 10^-5 M after 48 hrs by SRB assay relative to control).
Format: functional

Row | Structure (SMILES) | Activity [%]
1 | O=C(Nc1ccccc1C(=O)Nc1ccc(/C=C/c2ccc(Cl)cc2)cc1)c1ccco1 | 94.63
2 | O=C(Nc1ccccc1C(=O)Nc1ccc(/C=C/c2ccc(O)cc2)cc1)c1ccccc1 | 69.03
3 | O=C(Nc1ccccc1C(=O)Nc1ccc(/C=C/c2ccc(Cl)cc2)cc1)c1ccccc1 | 74.93

These compounds were tested on SF-539 (assay: Anticancer activity against human SF539 cells assessed as cell growth promotion at 10^-5 M after 48 hrs by SRB assay relative to control).
Format: functional

Row | Structure (SMILES) | Activity [%]
4 | O=C(Nc1ccccc1C(=O)Nc1ccc(/C=C/c2ccc(Cl)cc2)cc1)c1ccco1 | 97.41
5 | O=C(Nc1ccccc1C(=O)Nc1ccc(/C=C/c2ccc(O)cc2)cc1)c1ccccc1 | 81.74
6 | O=C(Nc1ccccc1C(=O)Nc1ccc(/C=C/c2ccc(Cl)cc2)cc1)c1ccccc1 | 91.8

These compounds were tested on DU-145 (assay: Anticancer activity against human DU145 cells assessed as cell growth promotion at 10^-5 M after 48 hrs by SRB assay relative to control).
Format: functional

Row | Structure (SMILES) | Activity [%]
7 | O=C(Nc1ccccc1C(=O)Nc1ccc(/C=C/c2ccc(Cl)cc2)cc1)c1ccco1 | 112
8 | O=C(Nc1ccccc1C(=O)Nc1ccc(/C=C/c2ccc(O)cc2)cc1)c1ccccc1 | 100
9 | O=C(Nc1ccccc1C(=O)Nc1ccc(/C=C/c2ccc(Cl)cc2)cc1)c1ccccc1 | 107

These compounds were tested on OVCAR-4 (assay: Anticancer activity against human OVCAR4 cells assessed as cell growth promotion at 10^-5 M after 48 hrs by SRB assay relative to control).
Format: functional

Row | Structure (SMILES) | Activity [%]
10 | O=C(Nc1ccccc1C(=O)Nc1ccc(/C=C/c2ccc(Cl)cc2)cc1)c1ccco1 | 101
11 | O=C(Nc1ccccc1C(=O)Nc1ccc(/C=C/c2ccc(O)cc2)cc1)c1ccccc1 | 82.05
12 | O=C(Nc1ccccc1C(=O)Nc1ccc(/C=C/c2ccc(Cl)cc2)cc1)c1ccccc1 | 85.63

What follows are compounds tested on BT-549 (assay: Anticancer activity against human BT549 cells assessed as cell growth promotion at 10^-5 M after 48 hrs by SRB assay relative to control).
Format: functional

Row | Structure (SMILES) | Activity [%]
13 | O=C(Nc1ccccc1C(=O)Nc1ccc(/C=C/c2ccc(Cl)cc2)cc1)c1ccco1 | 127
14 | O=C(Nc1ccccc1C(=O)Nc1ccc(/C=C/c2ccc(O)cc2)cc1)c1ccccc1 | 65.95
15 | O=C(Nc1ccccc1C(=O)Nc1ccc(/C=C/c2ccc(Cl)cc2)cc1)c1ccccc1 | 76.41

These compounds were tested on NCI-H522 (assay: Anticancer activity against human NCI-H522 cells assessed as cell growth promotion at 10^-5 M after 48 hrs by SRB assay relative to control).
Format: functional

Row | Structure (SMILES) | Activity [%]
16 | O=C(Nc1ccccc1C(=O)Nc1ccc(/C=C/c2ccc(Cl)cc2)cc1)c1ccco1 | 114
17 | O=C(Nc1ccccc1C(=O)Nc1ccc(/C=C/c2ccc(O)cc2)cc1)c1ccccc1 | 69.87
18 | O=C(Nc1ccccc1C(=O)Nc1ccc(/C=C/c2ccc(Cl)cc2)cc1)c1ccccc1 | 70.95

These compounds were tested on ACHN (assay: Anticancer activity against human ACHN cells assessed as cell growth promotion at 10^-5 M after 48 hrs by SRB assay relative to control).
Format: functional

Row | Structure (SMILES) | Activity [%]
19 | O=C(Nc1ccccc1C(=O)Nc1ccc(/C=C/c2ccc(Cl)cc2)cc1)c1ccco1 | 100
20 | O=C(Nc1ccccc1C(=O)Nc1ccc(/C=C/c2ccc(O)cc2)cc1)c1ccccc1 | 58.96
21 | O=C(Nc1ccccc1C(=O)Nc1ccc(/C=C/c2ccc(Cl)cc2)cc1)c1ccccc1 | 82.68

The compounds below were run on SK-MEL-2 (assay: Anticancer activity against human SK-MEL-2 cells assessed as cell growth promotion at 10^-5 M after 48 hrs by SRB assay relative to control).
Format: functional

Row | Structure (SMILES) | Activity [%]
22 | O=C(Nc1ccccc1C(=O)Nc1ccc(/C=C/c2ccc(Cl)cc2)cc1)c1ccco1 | 136
23 | O=C(Nc1ccccc1C(=O)Nc1ccc(/C=C/c2ccc(O)cc2)cc1)c1ccccc1 | 99.47
24 | O=C(Nc1ccccc1C(=O)Nc1ccc(/C=C/c2ccc(Cl)cc2)cc1)c1ccccc1 | 90.64

What follows are compounds tested on SK-MEL-28 (assay: Anticancer activity against human SK-MEL-28 cells assessed as cell growth promotion at 10^-5 M after 48 hrs by SRB assay relative to control).
Format: functional

Row | Structure (SMILES) | Activity [%]
25 | O=C(Nc1ccccc1C(=O)Nc1ccc(/C=C/c2ccc(Cl)cc2)cc1)c1ccco1 | 111
26 | O=C(Nc1ccccc1C(=O)Nc1ccc(/C=C/c2ccc(O)cc2)cc1)c1ccccc1 | 103
27 | O=C(Nc1ccccc1C(=O)Nc1ccc(/C=C/c2ccc(Cl)cc2)cc1)c1ccccc1 | 101

These compounds were tested on COLO 205 (assay: Anticancer activity against human COLO205 cells assessed as cell growth promotion at 10^-5 M after 48 hrs by SRB assay relative to control).
Format: functional

Row | Structure (SMILES) | Activity [%]
28 | O=C(Nc1ccccc1C(=O)Nc1ccc(/C=C/c2ccc(Cl)cc2)cc1)c1ccco1 | 128
29 | O=C(Nc1ccccc1C(=O)Nc1ccc(/C=C/c2ccc(O)cc2)cc1)c1ccccc1 | 101
30 | O=C(Nc1ccccc1C(=O)Nc1ccc(/C=C/c2ccc(Cl)cc2)cc1)c1ccccc1 | 124

The compounds below were run on SF-295 (assay: Anticancer activity against human SF295 cells assessed as cell growth promotion at 10^-5 M after 48 hrs by SRB assay relative to control).
Format: functional

Row | Structure (SMILES) | Activity [%]
31 | O=C(Nc1ccccc1C(=O)Nc1ccc(/C=C/c2ccc(Cl)cc2)cc1)c1ccco1 | 122
32 | O=C(Nc1ccccc1C(=O)Nc1ccc(/C=C/c2ccc(O)cc2)cc1)c1ccccc1 | 97.53
33 | O=C(Nc1ccccc1C(=O)Nc1ccc(/C=C/c2ccc(Cl)cc2)cc1)c1ccccc1 | 52.07

What follows are compounds tested on NCI-H226 (assay: Anticancer activity against human NCI-H226 cells assessed as cell growth promotion at 10^-5 M after 48 hrs by SRB assay relative to control).
Format: functional

Row | Structure (SMILES) | Activity [%]
34 | O=C(Nc1ccccc1C(=O)Nc1ccc(/C=C/c2ccc(Cl)cc2)cc1)c1ccco1 | 105
35 | O=C(Nc1ccccc1C(=O)Nc1ccc(/C=C/c2ccc(O)cc2)cc1)c1ccccc1 | 79.29
36 | O=C(Nc1ccccc1C(=O)Nc1ccc(/C=C/c2ccc(Cl)cc2)cc1)c1ccccc1 | 85.77

The compounds below were run on OVCAR-8 (assay: Anticancer activity against human OVCAR8 cells assessed as cell growth promotion at 10^-5 M after 48 hrs by SRB assay relative to control).
Format: functional

Row | Structure (SMILES) | Activity [%]
37 | O=C(Nc1ccccc1C(=O)Nc1ccc(/C=C/c2ccc(Cl)cc2)cc1)c1ccco1 | 100
38 | O=C(Nc1ccccc1C(=O)Nc1ccc(/C=C/c2ccc(O)cc2)cc1)c1ccccc1 | 86.46
39 | O=C(Nc1ccccc1C(=O)Nc1ccc(/C=C/c2ccc(Cl)cc2)cc1)c1ccccc1 | 88.85

These compounds were tested on SNB-75 (assay: Anticancer activity against human SNB75 cells assessed as cell growth promotion at 10^-5 M after 48 hrs by SRB assay relative to control).
Format: functional

Row | Structure (SMILES) | Activity [%]
40 | O=C(Nc1ccccc1C(=O)Nc1ccc(/C=C/c2ccc(Cl)cc2)cc1)c1ccco1 | 71.39
41 | O=C(Nc1ccccc1C(=O)Nc1ccc(/C=C/c2ccc(O)cc2)cc1)c1ccccc1 | 99.47
42 | O=C(Nc1ccccc1C(=O)Nc1ccc(/C=C/c2ccc(Cl)cc2)cc1)c1ccccc1 | 84.55

Each compound was assayed on MDA-MB-468 (assay: Anticancer activity against human MDA-MB-468 cells assessed as cell growth promotion at 10^-5 M after 48 hrs by SRB assay relative to control).
Format: functional

Row | Structure (SMILES) | Activity [%]
43 | O=C(Nc1ccccc1C(=O)Nc1ccc(/C=C/c2ccc(Cl)cc2)cc1)c1ccco1 | 108
44 | O=C(Nc1ccccc1C(=O)Nc1ccc(/C=C/c2ccc(O)cc2)cc1)c1ccccc1 | 77.87
45 | O=C(Nc1ccccc1C(=O)Nc1ccc(/C=C/c2ccc(Cl)cc2)cc1)c1ccccc1 | 83.46

The compounds below were run on IGROV-1 (assay: Anticancer activity against human IGROV1 cells assessed as cell growth promotion at 10^-5 M after 48 hrs by SRB assay relative to control).
Format: functional

Row | Structure (SMILES) | Activity [%]
46 | O=C(Nc1ccccc1C(=O)Nc1ccc(/C=C/c2ccc(Cl)cc2)cc1)c1ccco1 | 117
47 | O=C(Nc1ccccc1C(=O)Nc1ccc(/C=C/c2ccc(O)cc2)cc1)c1ccccc1 | 85.6
48 | O=C(Nc1ccccc1C(=O)Nc1ccc(/C=C/c2ccc(Cl)cc2)cc1)c1ccccc1 | 89.85

What follows are compounds tested on TK-10 (assay: Anticancer activity against human TK10 cells assessed as cell growth promotion at 10^-5 M after 48 hrs by SRB assay relative to control).
Format: functional

Row | Structure (SMILES) | Activity [%]
49 | O=C(Nc1ccccc1C(=O)Nc1ccc(/C=C/c2ccc(Cl)cc2)cc1)c1ccco1 | 127
50 | O=C(Nc1ccccc1C(=O)Nc1ccc(/C=C/c2ccc(O)cc2)cc1)c1ccccc1 | 100
51 | O=C(Nc1ccccc1C(=O)Nc1ccc(/C=C/c2ccc(Cl)cc2)cc1)c1ccccc1 | 123

Each compound was assayed on HCC 2998 (assay: Anticancer activity against human HCC2998 cells assessed as cell growth promotion at 10^-5 M after 48 hrs by SRB assay relative to control).
Format: functional

Row | Structure (SMILES) | Activity [%]
52 | O=C(Nc1ccccc1C(=O)Nc1ccc(/C=C/c2ccc(Cl)cc2)cc1)c1ccco1 | 96.83
53 | O=C(Nc1ccccc1C(=O)Nc1ccc(/C=C/c2ccc(O)cc2)cc1)c1ccccc1 | 94.19
54 | O=C(Nc1ccccc1C(=O)Nc1ccc(/C=C/c2ccc(Cl)cc2)cc1)c1ccccc1 | 78.38

Each compound was assayed on MCF7 (assay: Anticancer activity against human MCF7 cells assessed as cell growth promotion at 10^-5 M after 48 hrs by SRB assay relative to control).
Format: functional

Row | Structure (SMILES) | Activity [%]
55 | O=C(Nc1ccccc1C(=O)Nc1ccc(/C=C/c2ccc(Cl)cc2)cc1)c1ccco1 | 98.82
56 | O=C(Nc1ccccc1C(=O)Nc1ccc(/C=C/c2ccc(O)cc2)cc1)c1ccccc1 | 77.81
57 | O=C(Nc1ccccc1C(=O)Nc1ccc(/C=C/c2ccc(Cl)cc2)cc1)c1ccccc1 | 82.72

What follows are compounds tested on PC-3 (assay: Anticancer activity against human PC3 cells assessed as cell growth promotion at 10^-5 M after 48 hrs by SRB assay relative to control).
Format: functional

Row | Structure (SMILES) | Activity [%]
58 | O=C(Nc1ccccc1C(=O)Nc1ccc(/C=C/c2ccc(Cl)cc2)cc1)c1ccco1 | 115
59 | O=C(Nc1ccccc1C(=O)Nc1ccc(/C=C/c2ccc(O)cc2)cc1)c1ccccc1 | 61.81
60 | O=C(Nc1ccccc1C(=O)Nc1ccc(/C=C/c2ccc(Cl)cc2)cc1)c1ccccc1 | 65.2

What follows are compounds tested on A549 (assay: Anticancer activity against human A549 cells assessed as cell growth promotion at 10^-5 M after 48 hrs by SRB assay relative to control).
Format: functional

Row | Structure (SMILES) | Activity [%]
61 | O=C(Nc1ccccc1C(=O)Nc1ccc(/C=C/c2ccc(Cl)cc2)cc1)c1ccco1 | 102
62 | O=C(Nc1ccccc1C(=O)Nc1ccc(/C=C/c2ccc(O)cc2)cc1)c1ccccc1 | 75.71
63 | O=C(Nc1ccccc1C(=O)Nc1ccc(/C=C/c2ccc(Cl)cc2)cc1)c1ccccc1 | 70.02

— ChEMBL document CHEMBL1781959, “Synthesis and in vitro antitumor activity of substituted quinazoline and quinoxaline derivatives: search for anticancer agent” (Eur J Med Chem, 2011)
